Tests used:
[1] = tested on: children and adolescents with autism spectrum disorder; assay: BRIGHT study: open-label safety, tolerability and efficacy study of ZYN002 transdermal gel, 14 weeks; assay type: in vivo, human; conditions: subgroup comparison
Description: An exploratory open-label safety, tolerability and efficacy study of Zygel™ ZYNO02 transdermal gel to 37 children and adolescents with autism spectrum disorder was conducted. The patient population (ages 4 through 17 years old) were predominantly moderate-to-severe ASD patients. ASD was confirmed by Diagnostic and Statistical Manual of Mental Disorders, 5th edition (DSM-5) diagnostic criteria to assess the safety and efficacy of ZYNO02 in treating ASD-related behaviors as measured by a variety of efficacy assessments. These included the Aberrant Behavior Checklist-Community (ABC-C); the Autism Diagnostic Observation Schedule®, 2nd Edition (ADOS-2); and the Parent Rated Anxiety Scale-Autism Spectrum Disorder (PRAS-ASD). ZYNO02 was administered to patients with moderate-to-severe symptoms of ASD as add-on therapy to their standard of care.
The majority of the patients were male (92%) with a mean age of 9.2 years. […] The majority of patients had moderate or severe ASD at baseline as measured by the ADOS®-2 comparison score (94%) and Diagnostic and Statistical Manual of Mental Disorders, 5th edition, severity levels (92%). […]
The trial evaluated multiple efficacy assessments, including the ABC-C, PRAS-ASD, Autism Parenting Stress Index, Autism Impact Measure (AIM), and Clinical Global Impression-Severity (CGI-S) and Improvement (CGI-I). […]

[2] = tested on: patients with FXS and comorbid ASD; assay: Pooled placebo-controlled data: Week 12 change in ABC-C Irritability, 156 subjects; assay type: in vivo, human; conditions: subgroup comparison
From the text: The data collected from the studies presented herein, and other similar studies were pooled together and analyzed. […] The subjects had moderate to severe symptoms of ASD (ADOS-2, comparison score greater than, or equal to, 5). The data presented in Table 2 is the Week 12 change in ABC-C Irritability of all patients. In previous studies (such as presented in Example 1, Table 1) the data was enriched by removing the non-completers from the analysis and only presenting data from the completers.

SMILES: C=C(C)C1CCC(C)=CC1c1c(O)cc(CCCCC)cc1O (centres unmarked) [CBD, 2-[3-methyl-6-(1-methylethenyl)-2-cyclohexen-1-yl]-5-pentyl-1,3-benzenediol]
- improvement in irritability, PRAS score > 37 compared to ≤ 37 [1]: twice as much improvement in irritability
- improvement in irritability, ABC-CFXS Social Avoidance score > 7 compared to ≤ 7 [2]: twice as much improvement in irritability

— patent US20240342198A1, “TREATMENT OF IR[…] SUBJECTS WITH AUTISM SPECTRUM DISORDERS WITH MODERATE TO SEVERE ANXIETY AND/OR SOCIAL AVOIDANCE” (ZYNERBA PHARMACEUTICALS, INC., priority 2021, published 2024)
